The supplement of paper PMC10307832

Experiments:
Assay in all cases: relative viability (nuclei count vs DMSO), 5 days (fraction); higher = more cells survive
[1] = compound: CC1(C)CNc2cc(NC(=O)c3cccnc3NCc3ccncc3)ccc21 [Motesanib] + COc1cccc2cc(-c3nc([C@H]4CC[C@H](C(=O)O)CC4)n4ncnc(N)c34)[nH]c12 [OSI-027] (partner 0.5 µM)
Summary of the method: (§1)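 Medians of duplicate plates are given as relative viability. That measure is the nuclei count in treated wells divided by the count in vehicle wells. Counts were taken on 4× images of lung cancer cell lines in 1536-well plates, 5 days after pin-tool dosing the day after seeding with one drug alone or a fixed anchor-drug dose plus five library-drug doses (not always all listed) in √10 steps.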

[2] = compound: CC1(C)CNc2cc(NC(=O)c3cccnc3NCc3ccncc3)ccc21 [Motesanib] + C[C@]1(O)C[C@@H](c2nc(-c3ccc4ccc(-c5ccccc5)nc4c3)c3c(N)nccn32)C1 [Linsitinib] (partner 1 µM)
Summary of the method: as §1

[3] = compound: CC1(C)CNc2cc(NC(=O)c3cccnc3NCc3ccncc3)ccc21 [Motesanib] + N=C(N)NC(=N)NCCc1ccccc1 [Phenformin] (partner 250 µM)
Summary of the method: as §1

[4] = compound: C[C@@]1(C(=O)Nc2ccc(F)nc2)CCCN1c1nc(Nc2cc(C3CC3)n[nH]2)c2cccn2n1 + CCNC(=O)c1noc(-c2cc(C(C)C)c(O)cc2O)c1-c1ccc(CN2CCOCC2)cc1 [Luminespib] (partner 0.01 µM)
Summary of the method: as §1

Cell Line	relative viability ([1]; first compound 0.01 µM)	relative viability ([1]; first compound 0.03162 µM)	relative viability ([1]; first compound 0.1 µM)	relative viability ([1]; first compound 0.3162 µM)	relative viability ([1]; first compound 1 µM)	relative viability ([2]; first compound 0.01 µM)	relative viability ([2]; first compound 0.03162 µM)	relative viability ([2]; first compound 0.1 µM)	relative viability ([2]; first compound 0.3162 µM)	relative viability ([2]; first compound 1 µM)	relative viability ([3]; first compound 0.01 µM)	relative viability ([3]; first compound 0.03162 µM)	relative viability ([3]; first compound 0.1 µM)	relative viability ([3]; first compound 0.3162 µM)	relative viability ([3]; first compound 1 µM)	relative viability ([4]; first compound 0.04 µM)	relative viability ([4]; first compound 0.1265 µM)	relative viability ([4]; first compound 0.4 µM)	relative viability ([4]; first compound 1.265 µM)
CAL-12T	0.628	0.731	0.685	0.555	0.677	0.81	0.801	0.876	0.882	0.822	0.562	0.487	0.61	0.627	0.534	0.446	0.391	0.487	0.116
NCI-H520	0.29	0.226	0.231	0.24	0.253	0.86	1.02	0.911	1.18	0.923	0.538	0.671	0.468	0.587	0.499	0.214	0.242	0.267	0.211
NCI-H1755	0.661	0.682	0.746	0.826	0.652	1.02	0.999	1.03	1.02	1.02	0.618	0.631	0.665	0.747	0.619	0.616	0.357	0.406	0.437
NCI-H2023	0.453	0.374	0.373	0.404	0.429	0.756	0.695	0.715	0.587	0.643	0.387	0.297	0.443	0.421	0.463	0.58	0.336	0.37	0.192
NCI-H2009	0.646	0.689	0.713	0.593	0.623	1.14	1.27	1.17	1.22	1.18	0.491	0.36	0.544	0.481	0.487	1.11	1.08	1.01	1.07
